Laboratory results published in patent publication US10668149B2, “Combination therapies for heme malignancies with anti-CD38 antibodies and survivin inhibitors” (Janssen Biotech, Inc., priority 2015, dated 2020).
“Also recorded” adds a separate entry of the source.

Experiments:
RPMI-8226 cells = test: Compartment-specific BLI-based ADCC cytotoxicity assay, RPMI-8226; assay type: cell-based, human; details: 4 hours; for lysis of cells: daratumumab 0.3 μg/ml, YM155 1 nM, PBMC effector:target 40:1
Method: (§1) hBMSC were plated at a density of 1×10^4 cells/well in white opaque flat-bottomed 96-well plates (Costar) in 100 μl culture medium. After an adherence period of six hours, luc-transduced MM cell lines were added at a density of 1×10^4 cells/well in BMSC-coated or uncoated wells. In experiments in which YM155 was tested, YM155 was added at indicated concentrations together with MM cells. After 16-20 hours, daratumumab was added at indicated concentrations and left for 15 minutes at room temperature. Freshly isolated PBMC from healthy individuals were then added as effector cells at the indicated effector target ratios. 4 hours after addition of PBMC, 125 μg/ml beetle luciferin (Promega) was added and the bioluminescent signal emitted from surviving MM cells was determined within 20 minutes using a luminometer (SpectraMax, Molecular Devices). The percentage survival of MM cells was calculated using the formula: % survival=(mean bioluminescent signal in the absence of PBMCs/mean bioluminescent signal in the presence of PBMCs)×100%. In these assays the survival of MM cells is a direct reflection of ADCC mediated lysis and correlates with classical chromium release assays as described in McMillin et al., Nat Med 16:483-489, 2010.
Induction of ADCC by healthy donor BMSCs against two CD38^+ luciferase transduced MM cell lines, UM9 and RPMI was tested with serial concentrations of daratumumab in the presence or absence of HD-PBMCs as effector cells in compartment-specific BLI-based cytotoxicity assays.
In the assays, daratumumab and YM155 were used at a concentration of 0.3 μg/ml and 1 nM, respectively, for RPMI-8226 cells and at a concentration of 1 μg/ml and 120 nM for MM patient samples, respectively. Healthy donor PBMCs were used as effector cells at effector:target cell ratio of 40:1 for RPMI-8226 cells and 30:1 for MM patient samples.

MM cell line UM9 = test: In vivo tumor targeting, UM9 in humanized BM-like scaffolds; parameters: species or system RAG2−/−γc−/− mice; details: UM9 scaffolds s.c.; YM155 1 mg/kg/d for 10 days by s.c. infusion pump; T cell-depleted HD-PBMCs given
Text: FIG. 5. Antitumor effect of daratumumab and YM155 combination therapy. Analysis of tumor load per treatment group in RAG2^−/−γc^−− mice implanted with UM9 cells. Hybrid scaffolds coated with human MSCs and loaded with luciferase transduced MM cell line UM9 were implanted subcutaneously in the back of RAG2^−/−γc^−− mice (4 scaffolds per mice). Ten days after implantation, the growing tumors were visualized and quantified by BLI. Different groups of mice (n=4) were then either treated with vehicle control (control) or treated with daratumumab, YM155 or daratumumab plus YM155 as indicated. […] Mice were monitored weekly by BLI. Results are expressed as the mean tumor load in each scaffold. […] The statistical differences between mice treated with daratumumab and mice treated with daratumumab plus YM155 were calculated using the Mann-Whitney U-test. […]
The in vivo relevance of the combination of daratumumab with YM155 was tested in the preclinical xenograft model in RAG2^−/−gc^−/− mice, in which MM tumors were grown in a humanized BM-like niche created by subcutaneous implantation of ceramic scaffolds coated with human BMSCs. […] Ten days after implantation, the growing tumors were visualized and quantified by BLI. […] Mice were monitored weekly by BLI. […] Statistical differences between mice treated with daratumumab and mice treated with daratumumab plus YM155 were calculated using the Mann-Whitney U-test.

[1] = system: NK cells (CD3−CD138−CD56+ cells); test: Effect of YM155 on NK cell viability by FACS; assay type: cell-based, human; details: 24 hours
Method: FIG. 3. […] HD-PBMCs and patient bone marrow mononuclear cells (BMMNCs) were incubated with the indicated concentrations of YM155 for 24 hours. The number of viable CD3^−CD56^+ NK cells was determined by flow cytometry and the percent lysis was calculated using the untreated samples as negative control. Effect of YM155 on NK cell viability was evaluated first. BM-MNCs of MM patients were cultured in the presence of different doses of YM155 for 24 hours. Viability of MM cells (CD138^+ cells) and NK cells (CD3^−CD138^−CD56^+ cells) were determined by FACS.

MM cells (CD138+ cells) = test: Viability of MM cells in BM-MNCs cultured with YM155 by FACS; assay type: cell-based, human; details: BM-MNCs of MM patients; different doses of YM155; 24 hours
Method: Effect of YM155 on NK cell viability was evaluated first. BM-MNCs of MM patients were cultured in the presence of different doses of YM155 for 24 hours. Viability of MM cells (CD138^+ cells) and NK cells (CD3^−CD138^−CD56^+ cells) were determined by FACS.

UM9 MM cells = test: Compartment-specific BLI-based ADCC cytotoxicity assay, UM9; assay type: cell-based, human; details: serial concentrations, PBMC:MM 30:1, 4 hours
Method: as §1, with “2010. […]” for “2010.”

primary CD138+ MM cells = test: FACS based ADCC assay in Multiple Myeloma BM-MNC; assay type: cell-based, human; details: presence of autologous MM-BMSCs; both donors; 24 hours
Method: Frozen BM-MNCs from MM patients with 15-35% CD138^+ MM cells were used in FACS-based ADCC assays. The cells were thawed and cultured in 10% HS in RPMI. After 16-20 h, BM-MNCs were counted by trypan blue exclusion and 4×10^4 cells/well were plated in 96 round bottom plates. Daratumumab and/or YM155 were added in the wells as indicated per experiment. After 24 hours, cells were stained with fluorescent conjugated anti-CD138, anti-CD38, anti-CD56 and anti-CD3 antibodies and the survival of primary CD138^+ MM cells in the BM-MNCs was determined by FACS as previously described (Groen et al., Blood 120:e9-e16, 2012). Percentage lysis of MM cells was deduced using the following formula: % lysis cells=1−(counts of surviving CD138^+ cells in treated wells/counts of number of surviving CD138^+ cells in control wells)×100%.
Ability of BMSCs to protect primary MM cells from daratumumab-induced ADCC was also evaluated in a FACS-based ADCC assay using methodology described above. In the assays, BM-MNCs containing at least 15% CD138^+ malignant plasma cells and sufficient numbers of autologous effector NK cells were incubated with daratumumab to induce ADCC. The BM-MNCs were tested either alone or in co-culture with autologous BMSCs to evaluate the effect of BMSCs. FACS-based viability assay was performed after 24 hours of culture to determine CD138^+ surviving cells and calculate lysis. […]

| Compound | lysis of cells (RPMI-8226 cells; absence of BMSCs) | lysis of cells (RPMI-8226 cells; presence of BMSCs) | tumor growth (BLI) (MM cell line UM9) | viability of NK cells ([1]; BM-MNCs of MM patients, different doses of YM155) | NK cell lysis ([1]; HD-PBMCs and patient BMMNCs, indicated concentrations of YM155) | viability of MM cells (CD138+ cells) (MM cells (CD138+ cells)) | daratumumab-induced ADCC (UM9 MM cells; absence of BMSCs) | sensitivity to daratumumab-induced ADCC (UM9 MM cells; presence of BMSCs) | daratumumab-induced ADCC (RPMI-8226 cells; absence of BMSCs, serial concentrations, PBMC:MM 30:1) | sensitivity to daratumumab-induced ADCC (RPMI-8226 cells; presence of BMSCs, serial concentrations, PBMC:MM 30:1) | induction of ADCC of primary MM cells (primary CD138+ MM cells) |
| --- | --- | --- | --- | --- | --- | --- | --- | --- | --- | --- | --- |
| COCCn1c2c([n+](Cc3cnccn3)c1C)C(=O)c1ccccc1C2=O [YM155, 4,9-Dihydro-1-(2-methoxyethyl)-2-methyl-4,9-dioxo-3-(2-pyrazinylmethyl)-1H-naphth[2,3-d]imidazolium bromide] | about 20% | no effect | more pronounced | not affected; also recorded: does not negatively interfere | does not induce NK cell lysis | some toxicity |  |  |  |  |  |
| daratumumab: anti-CD38 antibody of IgG1/κ subtype, VH SEQ ID NO: 4 and VL SEQ ID NO: 5 | about 20% | about 10% | marginal effect |  |  |  | dose dependent fashion | less sensitive | dose dependent fashion | less sensitive | less efficient |
